# pIC50: −log10 of the molar value.
# Experiments:
# HeLa cells = test: In vitro cytotoxicity, CellTiter Blue cell viability; format: cell-based; conditions: 3 days
# Procedure: HeLa cells were obtained from ATCC and incubated at 37° C. at 5% CO2 using DMEM supplemented with 10% FBS, and 1× of sodium pyruvate, non-essential amino acids, L-glutamine and antibiotics.
# Cytotoxicity of compounds was evaluated using the CellTiter Blue assay (Promega). HeLa cells were plated in 96-well plates, at a density of 3000 cells/well 1 day before treatment. Treatments were prepared as 1000× serial stock dilutions in DMSO, then diluted into media for 1×, 0.1% DMSO treatment solutions. Plating media was removed, then treatments were added to the wells. After 3 days, the media was removed and replaced with 100 uL complete DMEM without phenol red. Then 20 uL of CellTiter Blue reagent was added, and the plates incubated for two hours at 37° C. Fluorescence was measured at 590 nm with excitation at 560 nm. To determine viability, average background fluorescence was subtracted from average fluorescence readings of the experimental wells (three wells per treatment concentration). Viability was calculated as the average background-subtracted signal in a well compared to that of a negative control well (treatment with 0.1% DMSO/media).
# Viabilities were fit in GraphPad Prism using a non-linear, dose-dependent inhibition curve. The IC50 numbers given in the table reflect the concentration at which the cell death is 50% of the maximum response.
# HSA = HSA (Homo sapiens, UniProt P02768); test: in vitro; format: in vitro ADME; conditions: HSA (human serum albumin), read-out: % bound to protein (converted); for fraction unbound at 1.5 μM: concentration 1.5 μM; for fraction unbound at 3 μM: concentration 3.0 μM
# Procedure: Using a dialysis-based protein binding assay according to the method described in Cohen, Plasma Protein-Binding Methods in Drug Discovery in OPTIMIZATION IN DRUG DISCOVERY: IN VITRO METHODS, Yan & Caldwell, eds., pp. 111-122 (Humana Press, Totowa, N.J., 2004), which is hereby incorporated by reference as though set forth herein in its entirety. The percentage of PTX-FA18 and the percentage of octadecanedioic acid (C18 Diacid) bound to the protein at different concentrations was measured.
# [1] = Homo sapiens, 72 h, average of at least 3 replicates
# Chain of HSA (P02768 25-609): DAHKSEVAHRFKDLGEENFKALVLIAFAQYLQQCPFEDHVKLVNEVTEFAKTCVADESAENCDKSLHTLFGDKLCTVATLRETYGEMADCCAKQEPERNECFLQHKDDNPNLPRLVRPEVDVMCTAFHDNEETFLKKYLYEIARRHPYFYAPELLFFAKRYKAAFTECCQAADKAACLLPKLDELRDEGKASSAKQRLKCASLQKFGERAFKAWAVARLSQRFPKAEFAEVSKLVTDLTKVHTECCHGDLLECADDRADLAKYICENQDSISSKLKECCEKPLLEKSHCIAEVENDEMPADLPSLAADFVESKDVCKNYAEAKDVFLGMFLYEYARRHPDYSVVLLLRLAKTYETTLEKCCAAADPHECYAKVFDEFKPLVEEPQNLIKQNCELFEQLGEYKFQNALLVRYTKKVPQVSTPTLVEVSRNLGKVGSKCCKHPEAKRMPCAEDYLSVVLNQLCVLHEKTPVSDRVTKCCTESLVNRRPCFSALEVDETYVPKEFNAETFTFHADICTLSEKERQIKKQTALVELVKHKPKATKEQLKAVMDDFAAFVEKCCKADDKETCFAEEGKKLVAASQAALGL
compound,measurement,setting,value
Methotrexate-C18 Diacid Conjugate [MTX-FA18],pIC50,HeLa cells; average of at least 3 replicates,5.52
"CC[C@@]1(OC(=O)CCCCCCCCCCCCCCCCC(=O)O)C(=O)OCc2c1cc1n(c2=O)Cc2cc3ccccc3nc2-1 [CPT-FA18, Camptothecin-C18 Diacid Conjugate]",pIC50,HeLa cells; [1],4.96
"CC(=O)O[C@H]1C(=O)[C@@]2(C)[C@H]([C@H](OC(=O)c3ccccc3)[C@]3(O)C[C@H](OC(=O)[C@H](OC(=O)CCCCCCCCCCCCCCC(=O)O)[C@@H](NC(=O)c4ccccc4)c4ccccc4)C(C)=C1C3(C)C)[C@]1(OC(C)=O)CO[C@@H]1C[C@@H]2O [PTX-FA16, Paclitaxel-C16 Diacid Conjugate]",pIC50,HeLa cells; [1],6.86
"COC(=O)CCCCCCCCCCCCCCCCC(=O)NCCCCCC(=O)O[C@@H](C(=O)O[C@H]1C[C@@]2(O)[C@@H](OC(=O)c3ccccc3)[C@@H]3[C@]4(OC(C)=O)CO[C@@H]4C[C@H](O)[C@@]3(C)C(=O)[C@H](OC(C)=O)C(=C1C)C2(C)C)[C@@H](NC(=O)c1ccccc1)c1ccccc1 [PTX-FAE18-Aa, Paclitaxel-C18 Diacid Conjugate+Amino Acid Spacer]",pIC50,"HeLa cells; Homo sapiens, 72 h, one experiment (*)",5.63
"O=C(O)CCCCCCCCCCCCCCCCC(=O)O [C18 Diacid, octadecanedioic acid]",fraction unbound at 1.5 μM,HSA,0.009
same,fraction unbound at 3 μM,HSA,0.002
same,fraction unbound at 20 μM,HSA; concentration 20.0 μM,0.026
"CC(=O)O[C@H]1C(=O)[C@@]2(C)[C@H]([C@H](OC(=O)c3ccccc3)[C@]3(O)C[C@H](OC(=O)[C@H](OC(=O)CCCCCCCCCCCCCCCCC(=O)O)[C@@H](NC(=O)c4ccccc4)c4ccccc4)C(C)=C1C3(C)C)[C@]1(OC(C)=O)CO[C@@H]1C[C@@H]2O [PTX-FA18, Paclitaxel-C18 Diacid Conjugate]",fraction unbound at 1.5 μM,HSA,0.005
same,fraction unbound at 3 μM,HSA,0.003
same,pIC50,HeLa cells; [1],7.19
"CC(=O)O[C@H]1C(=O)[C@@]2(C)[C@H]([C@H](OC(=O)c3ccccc3)[C@]3(O)C[C@H](OC(=O)[C@H](OC(=O)CCCCCCCCCCCCCCCCCCC(=O)O)[C@@H](NC(=O)c4ccccc4)c4ccccc4)C(C)=C1C3(C)C)[C@]1(OC(C)=O)CO[C@@H]1C[C@@H]2O [PTX-FA20, Paclitaxel-C20 Diacid Conjugate]",pIC50,HeLa cells; [1],7.56
"CC(=O)O[C@H]1C(=O)[C@@]2(C)[C@H]([C@H](OC(=O)c3ccccc3)[C@]3(O)C[C@H](OC(=O)[C@H](OC(=O)CCCCCCC/C=C/CCCCCCCC(=O)O)[C@@H](NC(=O)c4ccccc4)c4ccccc4)C(C)=C1C3(C)C)[C@]1(OC(C)=O)CO[C@@H]1C[C@@H]2O [PTX-FAu18, Paclitaxel-uC18 Diacid Conjugate]",pIC50,HeLa cells; [1],7.40

# From patent publication US10286079B2, “Modified cytotoxins and their therapeutic use” (The Regents of the University of California, priority 2015, dated 2019)
